Experimental data reported in publication PMC9919513, “A Practical Approach to Bicyclic Carbamoyl Pyridones with Application to the Synthesis of HIV-1 Integrase Strand Transfer Inhibitors” (Molecules, 2023).
Where two headings read alike, the source gives them in different places.

Key:
in vitro = format: cell-based; settings: human, HOS cells
Method: (§1) Human embryonic kidney cell culture cell line 293 was acquired from the American Type Culture Collection (ATCC). The human osteosarcoma cell line, HOS, was obtained from Dr. Richard Schwartz (Michigan State University, East Lansing, MI, USA) and grown in Dulbecco’s modified Eagle’s medium (Invitrogen, Carlsbad, CA, USA) supplemented with 5% (v/v) fetal bovine serum, 5% newborn calf serum, and penicillin (50 units/mL) plus streptomycin (50 µg/mL; Quality Biological, Gaithersburg, MD, USA). The transfection vector, pNLNgoMIVR-ΔLUC was made from pNLNgoMIVR-ΔEnv.HSA by removing the HSA reporter gene and replacing it with a luciferase reporter gene between the NotI and XhoI restriction sites. To produce the new IN mutant S230N used in this study, the IN open reading frame was removed from pNLNgoMIVR-ΔENV.LUC by digestion with KpnI and SalI, and the resulting fragment was inserted between the KpnI and SalI sites of pBluescript KS+. Using that construct as the wild-type template, we prepared the following HIV-1 IN mutant S230N using the QuikChange II XL site-directed mutagenesis kit (Agilent Technologies, Santa Clara, CA, USA) protocol. The following sense oligonucleotides were used with matching cognate antisense oligonucleotides (not shown) (Integrated DNA Technologies, Coralville, IA, USA) in the mutagenesis: S230N 5′-[…]-3′. The DNA sequence of the IN mutant S230N construct was verified independently by DNA sequence determination. The mutated IN coding sequences from pBluescript KS+ were then subcloned into pNLNgoMIVR-ΔEnv.LUC (between the KpnI and SalI sites) to produce mutant HIV-1 constructs, which were also checked by DNA sequencing. […]. On the day prior to transfection, 293 cells were plated on 100 mm diameter dishes at a density of 1.5 × 10^6 cells per plate. Next, 293 cells were transfected with 16 µg of pNLNgoMIVR^-ΔLUC and 4 µg of pHCMV-g (obtained from Dr. Jane Burns, University of California, San Diego) using the calcium phosphate method. At approximately 6 h after the calcium phosphate precipitate was added, 293 cells were washed twice with phosphate-buffered saline (PBS) and incubated with fresh media for 48 h. The virus-containing supernatants were then harvested, clarified by low-speed centrifugation, filtrated, and diluted for preparation in antiviral infection assays. On the day prior to the screen, HOS cells were seeded in a 96-well luminescence cell culture plate at a density of 4000 cells in 100 µL per well. On the day of the screen for cellular cytotoxicity determination, cells were treated with compounds from a concentration range of 250 µM to 0.05 µM and then incubated at 37 °C for 48 h. On the day of the screen for antiviral activity infection assays, cells were treated with compounds from a concentration range of 5 µM to 0.0001 µM using 11 serial dilutions and then incubated at 37 °C for 3 h. After compound incorporation and activation in the cell, 100 µL of virus-stock (WT or mutant) diluted to achieve a luciferase signal between 0.2 and 1.5 Relative Luciferase Units (RLUs) was added to each well and further incubated at 37 °C for 48 h. Cellular cytotoxicity was measured by using the ATP Lite Luminescence detection system and monitored by adding 50 µL of cell lysis buffer from the Luminescence ATP detection assay to each well followed by mixing at 700 rpm at room temperature for 5 min using a compact thermomixer. After addition of 50 µL of reconstituted Luminescence ATP detection assay reagent to all wells except for the negative control/background wells, the plates were mixed at 700 rpm at room temperature for 5 min using a compact thermomixer, incubated at room temperature for 20 min to allow time for signal development, and finally, cytotoxicity was determined using the microplate reader. Infectivity was measured by using the Steady-lite plus luminescence reporter gene assay system (PerkinElmer, Waltham, MA, USA). […]

[1] = system: HIV-1 vectors that carry WT IN; assay: Single-round HIV-1 replication antiviral assay, wild-type IN; format: cell-based; settings: for EC50: 48 h; for Ratio of the antiviral potencies after and before hydrogenation (WT): EC50 of saturated 7 over EC50 of unsaturated 6, WT IN
Method: The bicyclic metal chelating carbamoyl pyridone moiety is common to second-generation tricyclic INSTIs (3, 4, and 5, Figure 1). Analogs of the current study are simplified analogs that lack a third ring. […] The halogen substitution pattern of the benzylamide moiety can affect inhibitory potencies of INSTIs. We determined the antiviral potencies of our compounds in single round HIV-1 replication assays using viral constructs with wild-type IN [31]. Cytotoxicities were determined as previously described. […] In general, the potencies of bicyclic analogs 6 having an unsaturated bond at the C4 position were insensitive to differences in N-methyl substituents. […] Analogs 6g and 6h represent simplified analogs of DTG (3) and CAB (5), respectively, in which the third ring (C-ring) is opened and having doble bond in B-ring, but lacking α-methyl stereochemistry.
as §1, with “h.” for “h. Cellular cytotoxicity was measured by using the ATP Lite Luminescence detection system and monitored by adding 50 µL of cell lysis buffer from the Luminescence ATP detection assay to each well followed by mixing at 700 rpm at room temperature for 5 min using a compact thermomixer. After addition of 50 µL of reconstituted Luminescence ATP detection assay reagent to all wells except for the negative control/background wells, the plates were mixed at 700 rpm at room temperature for 5 min using a compact thermomixer, incubated at room temperature for 20 min to allow time for signal development, and finally, cytotoxicity was determined using the microplate reader. Infectivity was measured by using the Steady-lite plus luminescence reporter gene assay system (PerkinElmer, Waltham, MA, USA).”

[2] = 48 h, read-out: CC50, cytotoxic concentration resulting in 50% reduction in the level of ATP
[3] = Human immunodeficiency virus 1, HOS, read-out: EC50, antiviral potency, WT IN, VSV-g-pseudotyped HIV-1 luciferase vector with WT IN, HOS cells, 48 h

In the case of `CC(C)n1ccn2cc(C(=O)NCc3ccc(F)cc3F)c(=O)c(O)c2c1=O` [Compound 6b, N-(2,4-Difluorobenzyl)-9-hydroxy-2-isopropyl-1,8-dioxo-1,8-dihydro-2H-pyrido [1,2-a]pyrazine-7-carboxamide], the CC50 (in vitro; [2]) is reported as > 250000 nM and the EC50 [1, 3] is reported as 3.8 ± 0.6 nM.

`Cn1ccn2cc(C(=O)NCc3ccc(F)cc3F)c(=O)c(O)c2c1=O` [Compound 6a, N-(2,4-Difluorobenzyl)-9-hydroxy-2-methyl-1,8-dioxo-1,8-dihydro-2H-pyrido [1,2-a]pyrazine-7-carboxamide] showed an EC50 [1, 3] of 2.7 ± 0.2 nM and a melting point of 275 to 280 °C.

For `COCCCCCCn1ccn2cc(C(=O)NCc3ccc(F)cc3F)c(=O)c(O)c2c1=O` [Compound 6f, N-(2,4-Difluorobenzyl)-9-hydroxy-2-(6-methoxyhexyl)-1,8-dioxo-1,8-dihydro-2H-pyrido [1,2-a]pyrazine-7-carboxamide], the CC50 (in vitro; [2]) was > 250000 nM and the EC50 [1, 3] was 4.8 ± 0.2 nM.

For `CN1CCn2cc(C(=O)NCc3ccc(F)cc3F)c(=O)c(O)c2C1=O` [Compound 7a, N-(2,4-Difluorobenzyl)-9-hydroxy-2-methyl-1,8-dioxo-1,3,4,8-tetrahydro-2H-pyrido [1,2-a]pyrazine-7-carboxamide], the CC50 (in vitro; [2]) was > 250000 nM, the “Ratio of the antiviral potencies after and before hydrogenation (WT)” value (“Ratio of the antiviral potencies” below) [1] was 1.7 and the EC50 [1, 3] was 4.6 ± 0.7 nM. For the same compound, the melting point was 247 to 252 °C.

Work on `O=C(NCc1c(F)cc(F)cc1F)c1cn2c(c(O)c1=O)C(=O)N1[C@H]3CC[C@H](C3)O[C@@H]1C2` [BIC, Bictegravir, reference compound] yielded an EC50 [1, 3] of ~2 nM.

In the case of `COCCCCCCN1CCn2cc(C(=O)NCc3ccc(F)cc3F)c(=O)c(O)c2C1=O` [Compound 7f, N-(2,4-Difluorobenzyl)-9-hydroxy-2-(6-methoxyhexyl)-1,8-dioxo-1,3,4,8-tetrahydro-2H-pyrido [1,2-a]pyrazine-7-carboxamide], the CC50 (in vitro; [2]) is reported as > 250000 nM, the “Ratio of the antiviral potencies” value [1] is reported as 0.96 and the EC50 [1, 3] is reported as 4.6 ± 0.4 nM. The melting point was 228 to 232 °C.

In the case of `COCCCN1CCn2cc(C(=O)NCc3ccc(F)cc3F)c(=O)c(O)c2C1=O` [Compound 7g, N-(2,4-Difluorobenzyl)-9-hydroxy-2-(3-methoxypropyl)-1,8-dioxo-1,3,4,8-tetrahydro-2H-pyrido [1,2-a]pyrazine-7-carboxamide], the CC50 (in vitro; [2]) is reported as > 250000 nM, the “Ratio of the antiviral potencies” value [1] is reported as 2.0 and the EC50 [1, 3] is reported as 4 ± 0.7 nM. It also gave a melting point of 250 to 252 °C.

In the case of `COCCN1CCn2cc(C(=O)NCc3ccc(F)cc3F)c(=O)c(O)c2C1=O` [Compound 7h, N-(2,4-Difluorobenzyl)-9-hydroxy-2-(2-methoxyethyl)-1,8-dioxo-1,3,4,8-tetrahydro-2H-pyrido [1,2-a]pyrazine-7-carboxamide], the “Ratio of the antiviral potencies” value [1] is reported as 2.1, the EC50 [1, 3] is reported as 3.9 ± 0.5 nM and the melting point is reported as 207 to 210 °C.

In the case of `CC(C)N1CCn2cc(C(=O)NCc3ccc(F)cc3F)c(=O)c(O)c2C1=O` [Compound 7b, N-(2,4-Difluorobenzyl)-9-hydroxy-2-isopropyl-1,8-dioxo-1,3,4,8-tetrahydro-2H-pyrido [1,2-a]pyrazine-7-carboxamide], the CC50 (in vitro; running text of b13, read-out: CC50, cytotoxicity) is reported as 167000 nM, the “Ratio of the antiviral potencies” value [1] is reported as 0.79 and the EC50 [1, 3] is reported as 3 ± 0.1 nM.

With `CC(C)CC(C)N1CCn2cc(C(=O)NCc3ccc(F)cc3F)c(=O)c(O)c2C1=O` (centres unmarked) [Compound 7i, N-(2,4-Difluorobenzyl)-9-hydroxy-2-(4-methylpentan-2-yl)-1,8-dioxo-1,3,4,8-tetrahydro-2H-pyrido [1,2-a]pyrazine-7-carboxamide] the CC50 (in vitro; [2]) was > 250000 nM, the “Ratio of the antiviral potencies” value [1] was 1.4 and the EC50 [1, 3] was 6 ± 1.2 nM. The melting point was 190 to 192 °C.

With `COCCCn1ccn2cc(C(=O)NCc3ccc(F)cc3F)c(=O)c(O)c2c1=O` [Compound 6g, N-(2,4-Difluorobenzyl)-9-hydroxy-2-(3-methoxypropyl)-1,8-dioxo-1,8-dihydro-2H-pyrido [1,2-a]pyrazine-7-carboxamide] the CC50 (in vitro; [2]) was > 250000 nM and the EC50 [1, 3] was ~2 nM.

With `COCCn1ccn2cc(C(=O)NCc3ccc(F)cc3F)c(=O)c(O)c2c1=O` [Compound 6h, N-(2,4-Difluorobenzyl)-9-hydroxy-2-(2-methoxyethyl)-1,8-dioxo-1,8-dihydro-2H-pyrido [1,2-a]pyrazine-7-carboxamide] the CC50 (in vitro; [2]) was > 250000 nM, the EC50 [1, 3] was ~2 nM and the EC50 ([1]; read-out: EC50, antiviral potency, WT IN, VSV-g-pseudotyped HIV-1 luciferase vector with WT IN, HOS cells) was 1.9 ± 0.4 nM.

`C[C@H]1CO[C@@H]2Cn3cc(C(=O)NCc4ccc(F)cc4F)c(=O)c(O)c3C(=O)N12` [CAB, Cabotegravir, reference compound] gave an EC50 [1, 3] of ~2 nM.
